Assay results taken from ChEMBL document CHEMBL1201862, “PubChem BioAssay data set” (2004).
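1) Cells in 96-well plates. 2) Compound, 48 h, 5 concentrations. 3) Linear interpolation between surrounding doses. 4) Unreached endpoint = highest concentration. At the GI50, growth is halved.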 Active and inactive are the calls of the source. Cut-off read from the data, not from the text of the source: active = GI50 up to about 1.1 µM and inactive = higher.

What was measured:
Test in all cases: NCI anticancer screen, dose series, 48 h
[1] = system: A549
[2] = system: ACHN
[3] = system: CAKI-1
[4] = system: HCT-116
[5] = system: HCT-15
[6] = system: HOP-92
[7] = system: HT-29
[8] = system: K562
[9] = system: LOX IMVI
[10] = system: M14
[11] = system: NCI-H23
[12] = system: OVCAR-4
[13] = system: OVCAR-5
[14] = system: OVCAR-8
[15] = system: RXF 393
[16] = system: SF-268
[17] = system: SF-295
[18] = system: SK-OV-3
[19] = system: SN12C
[20] = system: SR
[21] = system: TK-10
[22] = system: 786-0
[23] = system: A498
[24] = system: CCRF-CEM
[25] = system: COLO 205
[26] = system: EKVX
[27] = system: HCC 2998
[28] = system: HL-60
[29] = system: HOP-62
[30] = system: Hs-578T
[31] = system: KM12
[32] = system: MCF7
[33] = system: MDA-MB-231
[34] = system: MDA-MB-435
[35] = system: MDA-N
[36] = system: Malme-3M
[37] = system: NCI-H226
[38] = system: NCI-H460
[39] = system: NCI/ADR-RES
[40] = system: OVCAR-3
[41] = system: PC-3
[42] = system: RPMI-8226
[43] = system: SF-539
[44] = system: SK-MEL-28
[45] = system: SK-MEL-5
[46] = system: SNB-19
[47] = system: SNB-75
[48] = system: SW-620
[49] = system: T47D
[50] = system: U-251
[51] = system: UACC-257
[52] = system: UACC-62

CN(C)C1COC2Cc3ccccc3C1O2 (configuration not stated)
GI50 [1]: > 100 µM (inactive) | GI50 [2]: > 100 µM (inactive) | GI50 [3]: > 100 µM (inactive) | GI50 [4]: > 100 µM (inactive) | GI50 [5]: > 100 µM | GI50 [6]: > 100 µM (inactive) | GI50 [7]: > 100 µM (inactive) | GI50 [8]: > 100 µM (inactive) | GI50 [9]: > 100 µM (inactive) | GI50 [10]: > 100 µM (inactive) | GI50 [11]: > 100 µM (inactive) | GI50 [12]: > 100 µM (inactive) | GI50 [13]: > 100 µM (inactive) | GI50 [14]: > 100 µM (inactive) | GI50 [15]: > 100 µM (inactive) | GI50 [16]: > 100 µM (inactive) | GI50 [17]: > 100 µM (inactive) | GI50 [18]: > 100 µM (inactive) | GI50 [19]: > 100 µM (inactive) | GI50 [20]: > 100 µM (inactive) | GI50 [21]: > 100 µM (inactive)

O/N=C\c1c(O)ccc2ccccc12
GI50 [22]: 46.2 µM (inactive) | GI50 [23]: 56.2 µM (inactive) | GI50 [1]: 46.6 µM (inactive) | GI50 [2]: 24.8 µM (inactive) | GI50 [3]: 30.8 µM (inactive) | GI50 [24]: 47.2 µM (inactive) | GI50 [25]: 55.3 µM (inactive) | GI50 [26]: 33 µM (inactive) | GI50 [27]: 31.7 µM (inactive) | GI50 [4]: 38.9 µM (inactive) | GI50 [5]: 32.2 µM | GI50 [28]: 14.7 µM (inactive) | GI50 [29]: 70.1 µM (inactive) | GI50 [6]: 73.8 µM (inactive) | GI50 [7]: 54.5 µM (inactive) | GI50 [30]: > 100 µM (inactive) | GI50 [8]: 46.8 µM (inactive) | GI50 [31]: 42.3 µM (inactive) | GI50 [9]: 45.8 µM (inactive) | GI50 [10]: 68.2 µM (inactive) | GI50 [32]: 37.8 µM (inactive) | GI50 [33]: 46.3 µM (inactive) | GI50 [34]: 65 µM (inactive) | GI50 [35]: 66.5 µM (inactive) | GI50 [36]: 12.6 µM (inactive) | GI50 [37]: 33.3 µM (inactive) | GI50 [11]: 83.6 µM (inactive) | GI50 [38]: 44.7 µM (inactive) | GI50 [39]: 68.2 µM (inactive) | GI50 [40]: 20.2 µM (inactive) | GI50 [13]: > 100 µM (inactive) | GI50 [14]: 9.12 µM (inactive) | GI50 [41]: 88.3 µM (inactive) | GI50 [42]: 49.8 µM (inactive) | GI50 [15]: 35.2 µM (inactive) | GI50 [16]: 31.6 µM (inactive) | GI50 [17]: 41.7 µM (inactive) | GI50 [43]: 44 µM (inactive) | GI50 [44]: 47.2 µM (inactive) | GI50 [45]: 46.7 µM (inactive) | GI50 [18]: 36.9 µM (inactive) | GI50 [19]: 38.3 µM (inactive) | GI50 [46]: > 100 µM (inactive) | GI50 [47]: 41.8 µM (inactive) | GI50 [20]: 21.2 µM (inactive) | GI50 [48]: 73.6 µM (inactive) | GI50 [49]: 27.8 µM (inactive) | GI50 [21]: 40.4 µM (inactive) | GI50 [50]: 51.8 µM (inactive) | GI50 [51]: 71.9 µM (inactive) | GI50 [52]: 41 µM (inactive)
